# Results taken from paper PMC6027146, “Synthesis and Structure-Activity Relationships of (−)-cis-N-Normetazocine-Based LP1 Derivatives” (Pharmaceuticals, 2018).
# Key:
# [1] = target: T1, recombinant human DOR (Homo sapiens, UniProt P41143); test: Calcium mobilization assay, CHO-DOR cells expressing GαqG66Di5; type: cell-based
# T1 construct: expressed in transfected cells; supplied by Dr. Eva Varga (University of Arizona); infected with a retrovirus for GαqG66Di5
# Method: The pharmacological characterization of LP1 derivatives 2 and 10–16 was performed by calcium mobilization assay (Table 2). This procedure was preliminarily validated through a series of experiments where the effects of DPDPE, dermorphin, and dynorphin A were assessed in CHO cells expressing the human recombinant opioid receptors and Gαqi5 or GαqG66Di5 chimeric proteins.
# Chinese hamster ovary (CHO) cells expressing the recombinant human MOR and KOR (CHO^MOR and CHO^KOR) were kindly provided by Dr. Larry Toll (SRI International, Menlo Park, CA, USA), and CHO cells expressing the recombinant human DOR (CHO^DOR) were supplied by Dr. Eva Varga (Department of Medical Pharmacology, The University of Arizona, Tucson, AZ, USA). CHO cells lines permanently coexpressing the opioid receptors and the C-terminally modified Gαqi5 were prepared by infecting the CHO lines described above with a recombinant retrovirus expressing the chimeric α subunit and the hygromycin resistance gene. Similarly, CHO cells lines permanently coexpressing DOR and the C-terminally modified GαqG66Di5 were prepared by infecting the CHO lines described above with a recombinant retrovirus expressing the chimeric α subunit and the hygromycin resistance gene. Polyclonal cell lines were generated using the pantropic retroviral expression system form BD-Clontech, as described previously. Stable lines were selected under hygromycin B (100 μg/mL) and geneticin (600 μg/mL) for 2–3 weeks after the infection.
# CHO cells, expressing human opioid receptors and the Gαqi5 protein, and CHODOR, expressing the GαqG66Di5 protein, were maintained in culture medium consisting of Dulbecco minimum essential medium (DMEM) and Ham F-12 (1:1) (50/50) supplemented with 10% fetal calf serum (FCS), L-glutamine (2 mM), geneticin (200 μg/mL; G418), hygromycin B (100 μg/mL) at 37 °C in 5% CO2 humidified air. When confluence was reached (3–4 days), cells were subcultured as required using trypsin/EDTA, and used for experimentation. The different cell lines were seeded at a density of […] into black 96-well, clear-bottomed plates. After 24 h incubation, the cells were loaded with medium supplemented with 2.5 mM probenecid, 3 μM of the calcium sensitive fluorescent dye Fluo-4 AM, and 0.01% pluronic acid, for 30 min at 37 °C. Afterwards, the loading solution was aspirated and 100 μL/well of assay buffer—HBSS supplemented with 20 mM HEPES, 2.5 mM probenecid and 500 μM Brilliant Black (Aldrich, St. Louis, MO, USA)—was added. Serial dilutions of ligands for experimental use were made in HBSS/HEPES (20 mM) buffer (containing 0.005% BSA fraction V). After placing both plates (cell culture and compound plate) into the FlexStation II (Molecular Device, Union City, San Jose, CA 94587, USA), fluorescence changes were measured at room temperature. Online additions were carried out in a volume of 50 μL/well. Antagonists were incubated 15 min before the addition of the agonist. Maximum change in fluorescence, expressed in percent of baseline fluorescence, was used to determine agonist response.
# Analysis of the binding data was performed using the Origin 7.5 software (OriginLab Corporation, Northampton, MA, USA). In calcium mobilization experiments, data were analyzed by non-linear curve fitting equation, using GraphPad 5.0 software. […] Ligand efficacy was expressed as intrinsic activity (α), calculated as the ratio between the Emax of the ligand and that of the respective standards. Calcium mobilization data were expressed as FIU (fluorescence intensity units) in percent, over the baseline. Agonist potencies are given as pEC50 (the negative logarithm to base 10 of the molar concentration of an agonist that produces 50% of the maximal possible effect, Emax). Concentration response curves to agonists were fitted with the following equation: Effect = baseline + (Emax − baseline)/(1+10^(LogEC50 − X) ∗ HillSlope) where X is the agonist concentration. […]
# [2] = tested on: DOR; design: method as in PMID 22100511; conditions: 10 nM; cited from earlier work
# T1 sequence (P41143 whole entry): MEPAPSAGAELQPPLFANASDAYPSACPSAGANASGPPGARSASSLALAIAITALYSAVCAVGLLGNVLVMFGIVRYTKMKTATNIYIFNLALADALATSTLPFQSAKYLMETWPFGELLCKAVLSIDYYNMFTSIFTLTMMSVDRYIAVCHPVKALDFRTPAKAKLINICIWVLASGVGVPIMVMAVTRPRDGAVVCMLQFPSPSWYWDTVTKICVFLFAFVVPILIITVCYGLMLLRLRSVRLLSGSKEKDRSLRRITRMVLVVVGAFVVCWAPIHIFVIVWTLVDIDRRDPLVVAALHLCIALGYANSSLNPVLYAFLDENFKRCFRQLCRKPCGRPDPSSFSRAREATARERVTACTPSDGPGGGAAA
smiles,measurement,setting,value
"C[C@H]1[C@H]2Cc3ccc(O)cc3[C@]1(C)CCN2CCC(=O)Nc1ccccc1 [LP1, 3-[(2R,6R,11R)-8-hydroxy-6,11-dimethyl-1,4,5,6-tetrahydro-2,6-methano-3-benzazocin-3(2H)-yl]-N-phenylpropanamide, reference compound]",EC50,[1],1120 nM
same,functional profile at DOR,[1]; calcium mobilization,partial DOR agonist
same,inhibition of [35S]GTPγS binding,[2],30%
